The values below come from ChEMBL document CHEMBL1201862, “PubChem BioAssay data set” (2004).

Some test systems named below: 786-0; A549; HCC 2998; HCT-15; HOP-62; IGROV-1; K562; LOX IMVI; M14; MDA-MB-231; MOLT-4; OVCAR-3; OVCAR-8; RXF 393; SF-268; SNB-19; TK-10; UO-31; HL-60.
Holding throughout (experiment): growth of human tumour cells (NCI), 48 h

SMILES strings stand for the structures.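 Test compounds were applied to cells in 96-well plates for 48 hours at 5 doses. At the GI50, growth is halved.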 The source made the active and inactive calls. Rule as the data show it: active = GI50 up to about 1.1 µM and inactive = higher. Some results are limits rather than exact numbers.

As for `CC1=C(C(=O)OC(C)(C)C)C(c2ccc([N+](=O)[O-])cc2)C(C(=O)OC(C)(C)C)=C(C)N1`, the GI50 in the test on 786-0 is 22.1 µM (inactive); in the test on A549, 24.9 µM (inactive); with HCC 2998 it was 13.2 µM (inactive); with HCT-15, 36.5 µM; in the test on HOP-62 it was 23.4 µM (inactive); in the test on IGROV-1, 16.8 µM (inactive). The GI50 with K562 was 25.4 µM (inactive); in the test on LOX IMVI it was 18.5 µM (inactive); with M14 it was 23.9 µM (inactive); in the test with MDA-MB-231, 22.2 µM (inactive); in the test on MOLT-4 it was 16.9 µM (inactive); in the test on OVCAR-3 it was 20.1 µM (inactive). Moreover, the GI50 with OVCAR-8 was 20.4 µM (inactive); in the test with RXF 393, 19.3 µM (inactive); in the test with SF-268 it was 21.7 µM (inactive); in the test with SNB-19, 34.4 µM (inactive); in the test with TK-10, 20.1 µM (inactive); with UO-31 it was 19.4 µM (inactive).
For `COC1=CC23CCCN2CCc2cc4c(cc2C3C1O)OCO4` (centres undefined), the GI50 was 44.9 µM (inactive) in the test with 786-0; 36.4 µM (inactive) in the test on A549; 70.3 µM (inactive) in the test with HCC 2998; 41.8 µM in the test with HCT-15; 25.8 µM (inactive) with HL-60; 28.8 µM (inactive) with IGROV-1. The GI50 in the test with K562 was > 10 µM (inactive); in the test with LOX IMVI it was 37.1 µM (inactive); with M14 it was > 100 µM (inactive); in the test with MDA-MB-231, > 100 µM (inactive); with MOLT-4, 66.7 µM (inactive); in the test with OVCAR-8 it was > 100 µM (inactive). For the same compound, the GI50 in the test on SF-268 is 50.2 µM (inactive); in the test with SNB-19, 20.3 µM (inactive); with TK-10, > 100 µM (inactive); with UO-31, 48 µM (inactive).
`CCN(CC)CCn1ncc2c(N)ncnc21`: the GI50 in the test with 786-0 was > 100 µM (inactive); in the test on A549, > 100 µM (inactive); in the test with HCC 2998 it was > 100 µM (inactive); with HCT-15 it was over 100 µM; in the test with HOP-62, > 100 µM (inactive); in the test on IGROV-1, > 100 µM (inactive). For the same compound, the GI50 in the test on K562, in the test with LOX IMVI, in the test on M14, in the test with MDA-MB-231, in the test with MOLT-4 and with OVCAR-3 was > 100 µM (inactive) each time. The GI50 with OVCAR-8, in the test with RXF 393, in the test on SF-268, in the test with SNB-19, in the test on TK-10 and in the test with UO-31 was > 100 µM (inactive) in each case.
With `O=C1C2CC=CCC2C(=O)N1n1c(-c2ccccc2)n[nH]c1=O` (centres undefined), the GI50 in the test with 786-0 is > 100 µM (inactive); with A549 it was > 100 µM (inactive); in the test on HCC 2998 it was > 100 µM (inactive); in the test on HCT-15 it was over 100 µM; in the test on HOP-62 it was > 100 µM (inactive); with IGROV-1, > 100 µM (inactive). Besides, the GI50 in the test with K562, in the test with LOX IMVI, in the test with M14, in the test on MDA-MB-231, in the test with MOLT-4 and with OVCAR-3 was > 100 µM (inactive) in each case. Further, the GI50 in the test with OVCAR-8, with RXF 393, in the test on SF-268, with SNB-19, in the test with TK-10 and in the test on UO-31 was > 100 µM (inactive) in each case.
Consider `CCOC(=O)/C=C(/C(=O)OCC)n1ccc(=O)n(Cc2cn(CCCCOC(C)=O)nn2)c1=O`, for which the GI50 is > 100 µM (inactive) with 786-0; > 100 µM (inactive) with A549; > 100 µM (inactive) in the test with HCC 2998; 59.4 µM in the test on HCT-15; > 100 µM (inactive) in the test with HOP-62; > 100 µM (inactive) in the test on IGROV-1. In addition, the GI50 in the test with K562 was 55 µM (inactive); in the test on LOX IMVI, > 100 µM (inactive); in the test on MDA-MB-231, > 100 µM (inactive); in the test with MOLT-4 it was 50.2 µM (inactive); in the test with OVCAR-3, > 100 µM (inactive); in the test on OVCAR-8, > 100 µM (inactive). The GI50 is > 100 µM (inactive) with RXF 393; > 100 µM (inactive) in the test with SF-268; > 100 µM (inactive) with SNB-19; 58.2 µM (inactive) in the test on TK-10; > 100 µM (inactive) with UO-31.
For `CC(CO)(CO)N1C(=O)C2C3c4ccccc4C(c4ccccc43)C2C1=O` (centres undefined), the GI50 is > 100 µM (inactive) with 786-0; > 100 µM (inactive) in the test with A549; > 100 µM (inactive) with HCC 2998; over 100 µM in the test on HCT-15; > 100 µM (inactive) in the test on HL-60; > 100 µM (inactive) in the test with HOP-62. The GI50 in the test with IGROV-1 was > 100 µM (inactive); in the test on K562, > 100 µM (inactive); in the test with M14 it was > 100 µM (inactive); in the test with MDA-MB-231, 45.8 µM (inactive); in the test on MOLT-4, > 100 µM (inactive); with OVCAR-3, > 100 µM (inactive). For the same compound, the GI50 in the test on OVCAR-8 was > 100 µM (inactive); with SF-268, > 100 µM (inactive); in the test on SNB-19, > 100 µM (inactive); with TK-10, > 100 µM (inactive); with UO-31, 65.2 µM (inactive).
For the compound `N#CC(C#N)=C1SC(=N\c2ccccc2)/C(=N/c2ccccc2)N1c1ccccc1`, the GI50 with 786-0 was 14.8 µM (inactive); in the test with A549, 58.9 µM (inactive); with HCC 2998, 15.2 µM (inactive); in the test with HCT-15 it was 2.03 µM; in the test with HOP-62, 27.7 µM (inactive); with IGROV-1 it was 13.9 µM (inactive). For the same compound, the GI50 in the test with K562 was 2.3 µM (inactive); with LOX IMVI, 10.7 µM (inactive); in the test with M14, 25.3 µM (inactive); in the test on MDA-MB-231, 7.8 µM (inactive); in the test on MOLT-4, 2.24 µM (inactive); in the test on OVCAR-3, 2.37 µM (inactive). For the same compound, the GI50 in the test on OVCAR-8 is 22.6 µM (inactive); in the test on RXF 393, 11 µM (inactive); in the test with SF-268, 19.3 µM (inactive); in the test on SNB-19 it was 40.2 µM (inactive); in the test with TK-10 it was 44.1 µM (inactive); in the test on UO-31, 12.7 µM (inactive).
In the case of `O=C(Cn1c2ccc(Br)cc2c2nc3ccccc3nc21)NC1CCCCC1`, the GI50 with 786-0 is > 100 µM (inactive); with A549, > 100 µM (inactive); in the test with HCC 2998, > 100 µM (inactive); with HCT-15, over 100 µM; in the test with HOP-62 it was > 100 µM (inactive); in the test on IGROV-1, > 100 µM (inactive). The GI50 in the test on K562, with LOX IMVI, with M14, in the test on MDA-MB-231, with MOLT-4 and in the test with OVCAR-3 was > 100 µM (inactive) throughout. For the same compound, the GI50 with OVCAR-8, in the test on RXF 393, with SF-268, in the test with SNB-19, in the test with TK-10 and with UO-31 was > 100 µM (inactive) throughout.
As to `Clc1nc(NCCc2ccccc2)c2ncn(-c3ccccc3)c2n1`, the GI50 in the test on 786-0 was 16.9 µM (inactive); in the test with A549, 26.4 µM (inactive); with HCC 2998, 17.1 µM (inactive); with HCT-15, 25.5 µM; in the test with HOP-62, 20.6 µM (inactive); in the test on IGROV-1 it was 40.8 µM (inactive). For the same compound, the GI50 was 25.5 µM (inactive) in the test with K562; 21.3 µM (inactive) in the test on LOX IMVI; 21.5 µM (inactive) in the test with M14; 21.8 µM (inactive) in the test with MDA-MB-231; 22 µM (inactive) in the test on MOLT-4; 25.2 µM (inactive) in the test on OVCAR-3. The GI50 is 28.4 µM (inactive) in the test on OVCAR-8; 24.8 µM (inactive) in the test on RXF 393; 36.5 µM (inactive) in the test with SF-268; 37 µM (inactive) in the test with SNB-19; 21.1 µM (inactive) with TK-10; 12.9 µM (inactive) in the test with UO-31.
In the case of `C=C(C)CCN(C(=O)OC(C)(C)C)c1cc(C(C)C)co1`, the GI50 was > 100 µM (inactive) with 786-0; 48.4 µM (inactive) in the test with A549; 52 µM (inactive) with HCC 2998; over 100 µM in the test on HCT-15; 11.8 µM (inactive) in the test on HL-60; > 100 µM (inactive) in the test on HOP-62. The GI50 in the test on IGROV-1 was > 100 µM (inactive); in the test on K562, 34.5 µM (inactive); in the test with LOX IMVI, 28 µM (inactive); with M14, > 100 µM (inactive); in the test on MDA-MB-231, > 100 µM (inactive); in the test on MOLT-4, 30.3 µM (inactive). The GI50 is 40.5 µM (inactive) with OVCAR-3; 37.5 µM (inactive) in the test on OVCAR-8; 0.344 µM (active) in the test with SF-268; > 100 µM (inactive) in the test with SNB-19; > 100 µM (inactive) in the test on TK-10; > 100 µM (inactive) in the test on UO-31.
With `O=C1Cc2c([nH]c3ccc(C(=O)O)cc23)-c2ccccc2N1`, the GI50 with 786-0 was > 100 µM (inactive); in the test with A549 it was > 100 µM (inactive); with HCC 2998, > 100 µM (inactive); in the test with HCT-15, over 100 µM; in the test with HL-60, 37.5 µM (inactive); in the test on HOP-62 it was > 100 µM (inactive). In addition, the GI50 in the test on IGROV-1, in the test with K562, with LOX IMVI, in the test on M14, in the test on MDA-MB-231 and with MOLT-4 was > 100 µM (inactive) each time. Further, the GI50 with OVCAR-3, with OVCAR-8, with SF-268, in the test with SNB-19, in the test on TK-10 and with UO-31 was > 100 µM (inactive) in each case.
